Measured values published in patent US8871460B2, “Gamma-secretase modulatory compounds, methods for identifying same, and uses therefor” (Neurogenetic Pharmaceuticals, Inc., priority 2009, dated 2014).

Legend:
Purified Pen-2 = biological target: T1, Purified Pen-2 (Homo sapiens, UniProt Q9NZ42); assay: Compound 1-conjugated Affi-Gel resin binding of isolated protein, immunoblot; settings: elute lane, vs unconjugated resin
T1 construct: GST (N, cleaved yes); purchased Abnova Corp H00055851-PO1
Protocol: (§1) Prior to assessing binding to Compound 1, the proteins used in the binding assay were characterized. Purified GST (Abnova Corp) and GST-Pen2 (Abnova Corp #H00055851-PO1) proteins were confirmed to react with anti-GST (Novagen #71097-3) and anti-Pen-2 (PNT2) antibodies on an immunoblot. […] To prepare purified Pen-2, about 1 μg of GST-Pen-2 was incubated with 4 μg of PreScission™ protease for 4 hr at 4° C. in Cleavage Buffer (50 mM Tris pH 7.4, 150 mM NaCl, 1 mM EDTA, 1% Triton X-100, 10% glycerol, 1 mg/ml phosphatidylcholine). Free GST and protease were removed by adding glutathione resin (Sigma #G4510) for 1 hr with rotation, and spinning down the resin. The supernatant, containing purified Pen-2, was collected.
(§2) Compound 1-conjugated and unconjugated Affi-Gel 10 resins were prepared essentially as described in Example 1. […]

GST = biological target: T2, GST (Schistosoma japonicum, UniProt P08515); assay: as above
T2 construct: purchased Abnova Corp
T2 sequence (P08515 whole entry): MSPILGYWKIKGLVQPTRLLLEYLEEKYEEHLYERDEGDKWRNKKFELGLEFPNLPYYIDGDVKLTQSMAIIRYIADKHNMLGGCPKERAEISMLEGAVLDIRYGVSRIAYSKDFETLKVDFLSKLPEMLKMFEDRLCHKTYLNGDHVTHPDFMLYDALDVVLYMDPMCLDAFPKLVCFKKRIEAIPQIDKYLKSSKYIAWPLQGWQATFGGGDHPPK
Protocol: as §1, §2

nicastrin (Nct) = assay: Compound 1-conjugated Affi-Gel resin pull-down from CHO-APPSwe whole-cell lysate, immunoblot; assay type: binding, Chinese Hamster
Protocol: (§3) Compound 1, which bears a primary amine, was conjugated to Affi-Gel 10 resin (BioRad #153-6046) according to manufacturer's instructions. Compound 1 was dissolved in DMSO to a final concentration of 15 mg/ml. One ml of compound was mixed with approximately 1 ml of resin previously equilibrated in isopropanol. The compound and resin were rotated at room temperature for approximately 3 hr, washed with DMSO and the remaining unreacted groups were blocked with ethanolamine. The efficiency of coupling was generally greater than 80%, as determined by LC-MS analysis, with approximately 10-15 μmol of compound per ml of resin final concentration.
(§4) Solubilized whole-cell lysates from CHO-APPSwe cells (Chinese Hamster Ovary cells expressing human APP^695 with the K670N/M671L “Swedish” mutation) were prepared in PLC buffer (20 mM Hepes pH 7.5, 1 mM EDTA, 150 mM NaCl, 1% Triton X-100, 0.2% Tween-20). Lysates were pre-cleared by incubating with 200 μl of blocked resin at 4° C. for 1 hr. The resin was pelleted and the resulting lysate was centrifuged at 13,000×g for 15 min to pellet any protein precipitates. One mg (approximately 2 mg/ml) of the pre-cleared whole cell lysate was incubated with 100 μl of either Compound 1-conjugated resin, or with unconjugated resin, for two hours at room temperature, with constant rotation. After incubation, the resin was pelleted at low speed and the supernatant (i.e. unbound proteins) collected. The resin was washed 3-5 times with 1 ml of PLC buffer. Bound proteins were eluted with 200-300 μl aliquots of SDS denaturing sample buffer (0.25 M Tris-HCl, pH 6.8; 5% (w/v) SDS; 0.05% bromophenol blue; 10% glycerol; 2.5% 2-mercaptoethanol). Equal volumes of whole cell lysate (WCL) and supernatant in SDS denaturing sample buffer, as well as eluates from each resin, were run in separate lanes on a 4-20% SDS-PAGE gel. The electrophoresed proteins were transferred to a nitrocellulose membrane (Invitrogen #LC2001) and immunoblotted with antibodies that specifically recognize either Pen-2 (PNT2; gift of Gopal Thinakaran, see Luo et al. (2003), J. Biol. Chem. 278:7850-7854), presenilin 1 N-terminal fragment (PS1-NTF; gift of Gopal Thinakaran), presenilin 1 C-terminal fragment (PS1-CTF; Calbiochem #529592), nicastrin (Nct; Sigma #N-1660), amyloid precursor protein (APP; antibody R8666, PCT publication WO 04/018997) or phopholipase C-gamma (PLCγ; Upstate #06-152).

[1] = tested on: presenilin 1 N-terminal fragment (PS1-NTF); assay: as above; assay type: binding, Chinese Hamster; settings: some present in eluate, not substantially depleted from starting lysate
Protocol: as §3, §4

[2] = tested on: phopholipase C-gamma (PLCγ); assay: as above; assay type: binding, Chinese Hamster
Protocol: as §3, §4

[3] = tested on: presenilin 1 C-terminal fragment (PS1-CTF); assay: as above; assay type: binding, Chinese Hamster
Protocol: as §3, §4

Pen-2 [4] = assay: as above; assay type: binding, Chinese Hamster
Protocol: as §3, §4

Pen-2 [5] = biological target: T3, Pen-2 (Homo sapiens, UniProt Q9NZ42); assay: Binding of Compound 1 to Pen-2 in lysates prepared from PS1-deficient cells
T3 construct: endogenous in cells; host or cells: PS1-deficient cells (not further described)
T3 sequence (Q9NZ42 whole entry): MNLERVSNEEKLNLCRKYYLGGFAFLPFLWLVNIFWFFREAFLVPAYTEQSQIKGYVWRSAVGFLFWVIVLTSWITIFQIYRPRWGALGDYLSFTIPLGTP

[6] = biological target: T4, APP holoenzyme (APP-Holo) (Homo sapiens, UniProt P05067, K670N/M671L); assay: Compound 1-conjugated Affi-Gel resin pull-down from CHO-APPSwe whole-cell lysate, immunoblot; assay type: binding
T4 construct: expressed in transfected cells; host or cells: CHO (Chinese Hamster Ovary)
T4 sequence (P05067 other isoform, or with tags, fused parts or gaps K595N/M596L): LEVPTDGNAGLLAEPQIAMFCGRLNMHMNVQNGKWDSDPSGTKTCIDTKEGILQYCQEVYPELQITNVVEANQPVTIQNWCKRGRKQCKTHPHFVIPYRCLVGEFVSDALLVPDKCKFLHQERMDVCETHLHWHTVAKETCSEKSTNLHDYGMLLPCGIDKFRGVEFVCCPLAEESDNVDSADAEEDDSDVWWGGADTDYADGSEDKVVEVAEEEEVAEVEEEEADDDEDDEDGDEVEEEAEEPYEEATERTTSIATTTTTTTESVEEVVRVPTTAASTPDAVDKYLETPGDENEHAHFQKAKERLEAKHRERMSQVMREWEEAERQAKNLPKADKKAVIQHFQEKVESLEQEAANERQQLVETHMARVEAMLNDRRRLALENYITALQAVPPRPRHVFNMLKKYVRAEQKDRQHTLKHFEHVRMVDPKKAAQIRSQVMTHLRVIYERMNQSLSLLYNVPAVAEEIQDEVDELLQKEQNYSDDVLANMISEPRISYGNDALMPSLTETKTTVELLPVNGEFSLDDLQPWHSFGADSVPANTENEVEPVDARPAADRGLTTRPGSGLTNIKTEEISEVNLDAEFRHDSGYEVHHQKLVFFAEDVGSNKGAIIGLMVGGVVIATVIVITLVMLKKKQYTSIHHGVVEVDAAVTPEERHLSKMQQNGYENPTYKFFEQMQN
Protocol: as §3
Solubilized whole-cell lysates from CHO-APPSwe cells (Chinese Hamster Ovary cells expressing human APP^695 with the K670N/M671L “Swedish” mutation) were prepared in PLC buffer (20 mM Hepes pH 7.5, 1 mM EDTA, 150 mM NaCl, 1% Triton X-100, 0.2% Tween-20). Lysates were pre-cleared by incubating with 200 μl of blocked resin at 4° C. for 1 hr. The resin was pelleted and the resulting lysate was centrifuged at 13,000×g for 15 min to pellet any protein precipitates. One mg (approximately 2 mg/ml) of the pre-cleared whole cell lysate was incubated with 100 μl of either Compound 1-conjugated resin, or with unconjugated resin, for two hours at room temperature, with constant rotation. […]

GST-Pen2 = GST-Pen2 (Homo sapiens, UniProt Q9NZ42); assay: Compound 1-conjugated Affi-Gel resin binding of isolated protein, immunoblot; design: purchased Abnova Corp H00055851-PO1; settings: elute lane, vs unconjugated resin
Sequence of GST-Pen2 (Q9NZ42 whole entry): as the sequence (Q9NZ42 whole entry) above
Protocol: as §1, §2

T1 sequence (Q9NZ42 whole entry): as above

Q: For `Cc1cn(-c2ccc(-c3csc(Nc4cc(C(C)C)c(OCCN)cc4C)n3)cc2F)cn1` [Compound 1], which “binding of purified Pen-2 to Compound 1-conjugated resin” value (Purified Pen-2) is on record?
A: selectively bind

Q: And the “binding of GST to Compound 1 resin” value (GST)?
A: did not bind

Q: And the “binding of Nct to Compound 1-conjugated resin” value (nicastrin (Nct))?
A: did not bind

Q: And the “binding of N-terminal fragment (NTF) of PS1 to Compound 1” value [1]?
A: minimal binding

Q: What about the “binding of PLCγ to Compound 1-conjugated resin” value [2] of the same molecule?
A: did not bind

Q: And the “binding of PS1-CTF to Compound 1-conjugated resin” value [3]?
A: did not bind

Q: And the “depletion of Pen-2 from whole cell lysate applied to the Compound 1-conjugated column” value (Pen-2 [4])?
A: substantially depleted

Q: And the “Pen-2 in SDS eluate from resin” value (Pen-2 [4]; Compound 1-conjugated vs unconjugated Affi-Gel 10 resin, 2 h room temperature)?
A: present in the SDS eluate from the Compound 1-conjugated resin, but not from the unconjugated resin

Q: What about the “binding to Pen-2 present in lysates prepared from PS1-deficient cells” value (Pen-2 [5]) of the same molecule?
A: demonstrated binding

Q: And the “binding of APP-Holo to Compound 1-conjugated resin” value [6]?
A: did not bind

Q: And the “binding of GST-Pen-2 to Compound 1-conjugated resin” value (GST-Pen2)?
A: selectively bind
